# Read-outs that look alike come from different tables or passages of the source.
# Experiments:
# ZIKV = ZIKV antiviral assay (virus-induced cytopathy) in Vero E6 cells with P-gp inhibitor; format: cell-based; settings: Zika virus, Vero C1008, 168 h, read-out: ZIKV EC50
# Method: (§1) Figure 5. (A) Further characterization of ASAP-0027808. Papp was determined in MDR1-MDCK cells. Antiviral assays were performed in Vero E6 cells in a 7-day infection using 0.5 uM CP100356 as a P-gp inhibitor (see Supporting Information for more details). (B) The compound was successfully crystallized with ZIKV NS2B-NS3. ASAP-0016806 and ASAP-0027808 both appear to interact with the same residues (catalytic triad His51/Asp75/Ser135 colored yellow, other key residues Tyr161, NS2B Ser81, and NS2B Asp83 colored green). (C) Dose-dependent suppression of ZIKV-induced cytopathy in VeroE6 cells (n=2); no changes to cell viability of uninfected cells treated with the inhibitor was observed. Cells were co-treated with 0.5 μM CP100356 (as P-gp inhibitor). TEXT PRINTED IN THE PICTURE: (A) ASAP-0027808: ZIKV NS2B-NS3 Ki (μM): 0.090; ZIKV EC50 / CC50 (μM): 4.6 / >50; WNV NS2B-NS3 Ki (μM): 2.9; MW (g/mol): 313; CLint,app, HLM (μL/min/mg): < 10; MDR1-MDCK Papp A→B, B→A (10^-6 cm/sec): 2.0 ,11.0; Kinetic solubility (pH 7.4, μM): 279; LogD: 0.9
# [1] = Cytotoxicity in uninfected Vero E6 cells; format: cell-based; settings: African green monkey; Vero E6 cells, 0.5 uM CP100356 as P-gp inhibitor; read-out: CC50
# Method: as §1
# WNV NS2B-NS3 protease = target: T1, WNV NS2B-NS3 protease (West Nile virus, UniProt P06935); assay: WNV NS2B-NS3 protease biochemical inhibition
# T1 construct: some activity against the WNV NS2B-NS3 protease
# ZIKV NS2B-NS3 protease = target: T2, ZIKV NS2B-NS3 protease (Zika virus, UniProt A0A024B7W1); assay: ZIKV NS2B-NS3 protease biochemical FRET assay
# T2 construct: directed at the co-expressed ZIKV NS2B-NS3 protease
# MDR1-MDCK permeability = format: in vitro ADME; settings: dog; for Papp A→B: MDCK-MDR1, A→B
# Method: as §1
# [2] = ZIKV NS2B-NS3 Ki (uM), library 1, supplement
# [3] = library 1, supplement, read-out: ZIKV NS2B-NS3 Ki
# T2 sequence (A0A024B7W1 1503-1680): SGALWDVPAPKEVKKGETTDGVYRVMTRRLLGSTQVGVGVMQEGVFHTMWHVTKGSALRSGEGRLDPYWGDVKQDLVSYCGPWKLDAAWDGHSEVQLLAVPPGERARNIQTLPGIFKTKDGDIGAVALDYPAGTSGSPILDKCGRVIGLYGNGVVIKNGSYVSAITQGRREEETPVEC
# T2 sequence (A0A024B7W1 1425-1464): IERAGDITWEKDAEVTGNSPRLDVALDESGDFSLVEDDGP
# T1 sequence (P06935 1424-1463): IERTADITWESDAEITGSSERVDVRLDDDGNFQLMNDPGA
# T1 sequence (P06935 1502-1679): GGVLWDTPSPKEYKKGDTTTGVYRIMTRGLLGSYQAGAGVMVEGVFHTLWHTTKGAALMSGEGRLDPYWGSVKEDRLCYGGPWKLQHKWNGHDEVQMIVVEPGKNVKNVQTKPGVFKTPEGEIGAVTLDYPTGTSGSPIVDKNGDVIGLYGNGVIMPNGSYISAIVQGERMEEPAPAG
smiles,measurement,setting,value
CC(C)NC(=O)[C@@H](Nc1ccc2c(c1)CNC2)c1cc(Cl)cc2[nH]ncc12 [ASAP-0029974],EC50,ZIKV,5.7 µM
same,CC50,[1],> 50 µM
same,logD,LogD,0.5
same,Ki,WNV NS2B-NS3 protease,0.36 µM
same,Ki,ZIKV NS2B-NS3 protease; ZIKV NS2B-NS3 Ki,0.048 µM
N#C[C@@H](Nc1ccc2c(c1)CNC2)c1cc(Cl)cc2[nH]ncc12 [ASAP-0028904],logD,LogD,0.9
same,Papp A→B,MDR1-MDCK permeability,1.1 ×10⁻⁶ cm/s
same,Ki,WNV NS2B-NS3 protease,18 µM
same,Ki,ZIKV NS2B-NS3 protease; ZIKV NS2B-NS3 Ki,0.1 µM
Clc1cc(CNc2ccc3c(c2)CNC3)c2cn[nH]c2c1 [ASAP-0029525],EC50,ZIKV,17.9 µM
same,CC50,[1],29.8 µM
same,Ki,WNV NS2B-NS3 protease,43 µM
same,Ki,ZIKV NS2B-NS3 protease; ZIKV NS2B-NS3 Ki,2.9 µM
OCC#C[C@@H](Nc1ccc2c(c1)CNC2)c1cc(Cl)cc2[nH]ncc12 [ASAP-0028990],logD,LogD,0.5
same,Papp A→B,MDR1-MDCK permeability,0.59 ×10⁻⁶ cm/s
same,Ki,WNV NS2B-NS3 protease,21 µM
same,Ki,ZIKV NS2B-NS3 protease; ZIKV NS2B-NS3 Ki,0.99 µM
CC(C)NC(=O)[C@@H](Nc1ccc2c(c1)CNC2)c1cc(Cl)cc2[nH]ncc12 [ASAP-0029000],logD,LogD,0.5
same,Papp B→A,"MDR1-MDCK permeability; MDCK-MDR1, B→A",2.2 ×10⁻⁶ cm/s
same,Ki,WNV NS2B-NS3 protease,0.32 µM
same,Ki,ZIKV NS2B-NS3 protease; ZIKV NS2B-NS3 Ki,0.077 µM
"Cn1nc2c(c1NC(=O)c1cc(Cl)cc(NC(=O)OCc3ccccc3)c1)CCNC2 [ASAP-0021390, Cn1nc2c(c1NC(=O)c1cc(Cl)cc(NC(=O)OCc3ccccc3)c1)CCNC2]",Ki,ZIKV NS2B-NS3 protease; [2],> 89.3 µM
"O=C(Nc1cc(Cl)cc(C(=O)Nc2cc3n(n2)CCNC3)c1)OCc1ccccc1 [ASAP-0020976, O=C(Nc1cc(Cl)cc(C(=O)Nc2cc3n(n2)CCNC3)c1)OCc1ccccc1]",Ki,ZIKV NS2B-NS3 protease; [2],> 89.3 µM
"O=C(Nc1cc(Cl)cc(C(=O)Nc2ncc(C3CNC3)s2)c1)OCc1ccccc1 [ASAP-0021562, O=C(NC1=CC(Cl)=CC(C(=O)NC2=NC=C(C3CNC3)S2)=C1)OCC1=CC=CC=C1]",Ki,ZIKV NS2B-NS3 protease; [2],> 89.3 µM
"NC[C@H]1C[C@@H](CNC(=O)c2cc(Cl)cc(NC(=O)OCc3ccccc3)c2)CCO1 [ASAP-0021664, NC[C@H]1C[C@@H](CNC(=O)c2cc(Cl)cc(NC(=O)OCc3ccccc3)c2)CCO1 ¦&1:2,&2:4¦]",ZIKV NS2B-NS3 pKi,"ZIKV NS2B-NS3 protease; library 1, supplement",< 4.05
same,Ki,ZIKV NS2B-NS3 protease; [3],> 89.3 µM
NCc1cccc(NC(=O)c2cc(Cl)cc(NC(=O)OCc3ccccc3)c2)c1 [ASAP-0016806],Ligand efficiency (LE),ZIKV NS2B-NS3 protease; Ligand efficiency = pKi / heavy atom count,0.259
same,Ki,ZIKV NS2B-NS3 protease; ZIKV NS2B-NS3 Ki,4.3 µM
CN(C)Cc1ccc(C(=O)Nc2cc(Cl)cc(C(=O)NC(C)(C)CO)c2)[nH]1 [ASAP-0015373],inhibition at 100 µM,ZIKV NS2B-NS3 protease; read-out: inhibition in biochemical assay,30%
"NCc1nc(CNC(=O)c2cc(Cl)cc(NC(=O)OCc3ccccc3)c2)cs1 [ASAP-0021116, NCc1nc(CNC(=O)c2cc(Cl)cc(NC(=O)OCc3ccccc3)c2)cs1]",Ki,ZIKV NS2B-NS3 protease; [2],> 89.3 µM
"Cn1nc2c(c1NC(=O)c1cc(Cl)cc(NC(=O)OCc3ccccc3)c1)CNCC2 [ASAP-0021291, Cn1nc2c(c1NC(=O)c1cc(Cl)cc(NC(=O)OCc3ccccc3)c1)CNCC2]",Ki,ZIKV NS2B-NS3 protease; [2],19.7 µM
"C[C@]1(CNC(=O)c2cc(Cl)cc(NC(=O)OCc3ccccc3)c2)CNCCOC1 [ASAP-0021641, C[C@]1(CNC(=O)c2cc(Cl)cc(NC(=O)OCc3ccccc3)c2)CNCCOC1 ¦&1:1¦]",ZIKV NS2B-NS3 pKi,"ZIKV NS2B-NS3 protease; library 1, supplement",< 4.05
same,Ki,ZIKV NS2B-NS3 protease; [3],> 89.3 µM
"O=C(Nc1cc(Cl)cc(C(=O)NCC2(CO)CCNCC2)c1)OCc1ccccc1 [ASAP-0021096, O=C(Nc1cc(Cl)cc(C(=O)NCC2(CO)CCNCC2)c1)OCc1ccccc1]",Ki,ZIKV NS2B-NS3 protease; [2],> 89.3 µM
"NCc1ccc(F)c(NC(=O)c2cc(Cl)cc(NC(=O)OCc3ccccc3)c2)c1 [ASAP-0021403, NCc1ccc(F)c(NC(=O)c2cc(Cl)cc(NC(=O)OCc3ccccc3)c2)c1]",Ki,"ZIKV NS2B-NS3 protease; ZIKV NS2B-NS3 pKi, library 1, supplement",3.89 µM

# — publication doi:10.1101/2025.06.19.660642, “Discovery of orally bioavailable Zika and West Nile Virus antiviral compounds targeting the NS2B-NS3 protease” (bioRxiv, 2025)
